Assay [1] has as its target T1, PDGFR beta (Homo sapiens, UniProt P09619).
T1 construct: endogenous in cells; host or cells: HS27 human fibroblast cell line
Description: Phospho PDGFR LICOR Cell Assay (Example B). Format: cell-based. The settings on record: averaged IC50; PDGFR beta phosphorylation in HS27 human fibroblast cell line, PDGF-BB stimulation 10 minutes, normalized to total ERK. The gist of the method:
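HS27 human fibroblasts pretreated 1 h with compound, then stimulated 10 min with PDGF-BB. Fixed, permeabilized cells immunostained for phospho-PDGFRβ and total ERK and read by two-colour infrared fluorescence, with phospho signal normalized to ERK. IC50 = 50% of control from 4-parameter logistic fit.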

The target in assay [2] is T1, PDGFR beta. In words: Phospho PDGFR Cell Assay, sandwich ELISA (Example A). Format: cell-based. The settings on record: averaged IC50, PDGFR beta phosphorylation in HS27 human fibroblast cell line, PDGF-BB stimulation 5 minutes. The protocol:
Compounds were screened for inhibition of PDGFR beta phosphorylation in the HS27 human fibroblast cell line. Cells were seeded into a 96 well tissue culture plate, then incubated overnight in a 37° C., 5% CO2 incubator. The following day, cells were treated for one hour with test compound dilutions. After stimulation with PDGF-BB ligand for 5 minutes, cells were lysed and added to a sandwich ELISA plate from R&D Systems to detect levels of phospho PDGFR beta. A standard 4-parameter logistic model was fit to the inhibitor dose response curves, with the IC50 being defined as the concentration of inhibitor giving 50 percent of control (POC).

The target in a further assay is T2, cFMS (Homo sapiens, UniProt P07333).
T2 construct: THP-1 cells (human acute monocytic leukemia cell line) were serum-starved for 4 hours; endogenous in cells; host or cells: THP-1 cells (human acute monocytic leukemia cell line)
T2 sequence (P07333 20-972): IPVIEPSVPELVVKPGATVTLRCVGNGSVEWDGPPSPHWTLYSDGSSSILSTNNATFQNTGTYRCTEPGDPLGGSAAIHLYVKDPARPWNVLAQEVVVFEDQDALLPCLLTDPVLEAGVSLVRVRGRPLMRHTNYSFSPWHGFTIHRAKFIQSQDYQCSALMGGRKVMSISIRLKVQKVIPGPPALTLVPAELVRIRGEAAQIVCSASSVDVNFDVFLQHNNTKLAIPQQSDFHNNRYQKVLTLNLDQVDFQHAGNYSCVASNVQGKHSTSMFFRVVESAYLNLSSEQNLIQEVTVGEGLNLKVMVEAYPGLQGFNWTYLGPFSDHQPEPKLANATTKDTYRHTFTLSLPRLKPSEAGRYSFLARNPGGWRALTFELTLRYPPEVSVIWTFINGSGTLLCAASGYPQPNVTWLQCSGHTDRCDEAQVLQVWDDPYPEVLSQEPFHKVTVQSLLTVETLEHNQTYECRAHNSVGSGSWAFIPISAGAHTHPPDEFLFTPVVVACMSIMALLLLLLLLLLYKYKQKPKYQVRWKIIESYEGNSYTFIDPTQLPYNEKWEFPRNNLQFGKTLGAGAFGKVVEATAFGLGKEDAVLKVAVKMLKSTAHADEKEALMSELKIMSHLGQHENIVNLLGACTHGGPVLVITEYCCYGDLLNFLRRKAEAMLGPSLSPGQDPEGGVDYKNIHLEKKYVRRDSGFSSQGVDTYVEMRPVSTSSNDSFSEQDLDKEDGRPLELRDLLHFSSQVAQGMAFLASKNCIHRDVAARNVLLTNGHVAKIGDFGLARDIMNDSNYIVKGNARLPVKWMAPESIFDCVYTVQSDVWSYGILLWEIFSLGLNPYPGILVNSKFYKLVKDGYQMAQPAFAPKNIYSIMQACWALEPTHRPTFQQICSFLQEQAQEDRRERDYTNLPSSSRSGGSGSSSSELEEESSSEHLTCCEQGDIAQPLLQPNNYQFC
In words: cFMS Cell-Based Assay (Example C). The following applies: averaged IC50; phospho-cFMS in THP-1 cells stimulated with 250 ng/mL recombinant human MCSF; read-out: cFMS Cell ELISA IC50. Summed up: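 THP-1 cells serum-starved 4 h, then treated 1 h with compound (9-point, 3-fold series, top dose typically 5,000 nM) at 37 °C, then stimulated 1 min with 250 ng/mL recombinant human MCSF. Phospho-cFMS in lysates quantified by capture ELISA against a purified phospho-protein standard curve. IC50 at 50 percent of control, 4-parameter logistic fit.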

The target in a further assay is T3, c-KIT (Homo sapiens, UniProt P10721).
T3 construct: M-07e cells (human acute megakaryoblastic leukemia cell line) were serum-starved for 4 hours; endogenous in cells; host or cells: M-07e cells (human acute megakaryoblastic leukemia cell line)
T3 sequence (P10721 26-976): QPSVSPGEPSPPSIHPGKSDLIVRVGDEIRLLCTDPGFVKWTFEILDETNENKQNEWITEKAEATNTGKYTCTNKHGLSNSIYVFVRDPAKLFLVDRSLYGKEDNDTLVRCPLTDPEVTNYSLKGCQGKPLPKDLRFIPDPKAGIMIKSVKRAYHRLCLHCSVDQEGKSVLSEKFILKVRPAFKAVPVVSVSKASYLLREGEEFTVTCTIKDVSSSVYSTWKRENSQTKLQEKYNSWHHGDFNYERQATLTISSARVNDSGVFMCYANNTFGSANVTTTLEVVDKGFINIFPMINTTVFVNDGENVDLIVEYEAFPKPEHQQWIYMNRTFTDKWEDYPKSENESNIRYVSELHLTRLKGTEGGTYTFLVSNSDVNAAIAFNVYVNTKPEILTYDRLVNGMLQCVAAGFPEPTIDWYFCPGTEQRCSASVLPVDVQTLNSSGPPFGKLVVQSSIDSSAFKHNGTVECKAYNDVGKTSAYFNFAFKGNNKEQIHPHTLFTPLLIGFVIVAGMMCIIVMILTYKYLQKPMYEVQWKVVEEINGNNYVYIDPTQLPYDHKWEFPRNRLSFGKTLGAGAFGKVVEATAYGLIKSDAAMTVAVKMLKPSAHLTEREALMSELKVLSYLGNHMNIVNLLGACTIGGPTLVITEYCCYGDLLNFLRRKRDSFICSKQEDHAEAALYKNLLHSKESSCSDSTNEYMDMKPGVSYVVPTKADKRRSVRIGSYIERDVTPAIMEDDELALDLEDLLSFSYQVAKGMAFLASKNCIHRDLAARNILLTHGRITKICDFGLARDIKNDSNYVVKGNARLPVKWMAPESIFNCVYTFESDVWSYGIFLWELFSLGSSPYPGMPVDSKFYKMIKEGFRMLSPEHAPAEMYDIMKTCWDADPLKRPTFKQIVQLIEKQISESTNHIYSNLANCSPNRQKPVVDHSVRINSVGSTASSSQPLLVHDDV
Description: c-KIT Cell-Based Assay (Example D). The following applies: averaged IC50; phospho-c-KIT in M-07e cells stimulated with 150 ng/ml recombinant human SCF; read-out: cKIT Cell ELISA IC50. The gist of the method:
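M-07e cells serum-starved 4 h, treated 1 h with compound (9-point, 3-fold dilutions, top dose typically 5,000 nM) at 37° C, then stimulated 4 min with 150 ng/ml SCF. Phospho-c-KIT in lysates quantified by ELISA against a standard curve; IC50 from 4-parameter logistic fit as 50% of control.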

Where a name gives a salt, the structure may show the parent alone.

T1 sequence (P09619 33-1106): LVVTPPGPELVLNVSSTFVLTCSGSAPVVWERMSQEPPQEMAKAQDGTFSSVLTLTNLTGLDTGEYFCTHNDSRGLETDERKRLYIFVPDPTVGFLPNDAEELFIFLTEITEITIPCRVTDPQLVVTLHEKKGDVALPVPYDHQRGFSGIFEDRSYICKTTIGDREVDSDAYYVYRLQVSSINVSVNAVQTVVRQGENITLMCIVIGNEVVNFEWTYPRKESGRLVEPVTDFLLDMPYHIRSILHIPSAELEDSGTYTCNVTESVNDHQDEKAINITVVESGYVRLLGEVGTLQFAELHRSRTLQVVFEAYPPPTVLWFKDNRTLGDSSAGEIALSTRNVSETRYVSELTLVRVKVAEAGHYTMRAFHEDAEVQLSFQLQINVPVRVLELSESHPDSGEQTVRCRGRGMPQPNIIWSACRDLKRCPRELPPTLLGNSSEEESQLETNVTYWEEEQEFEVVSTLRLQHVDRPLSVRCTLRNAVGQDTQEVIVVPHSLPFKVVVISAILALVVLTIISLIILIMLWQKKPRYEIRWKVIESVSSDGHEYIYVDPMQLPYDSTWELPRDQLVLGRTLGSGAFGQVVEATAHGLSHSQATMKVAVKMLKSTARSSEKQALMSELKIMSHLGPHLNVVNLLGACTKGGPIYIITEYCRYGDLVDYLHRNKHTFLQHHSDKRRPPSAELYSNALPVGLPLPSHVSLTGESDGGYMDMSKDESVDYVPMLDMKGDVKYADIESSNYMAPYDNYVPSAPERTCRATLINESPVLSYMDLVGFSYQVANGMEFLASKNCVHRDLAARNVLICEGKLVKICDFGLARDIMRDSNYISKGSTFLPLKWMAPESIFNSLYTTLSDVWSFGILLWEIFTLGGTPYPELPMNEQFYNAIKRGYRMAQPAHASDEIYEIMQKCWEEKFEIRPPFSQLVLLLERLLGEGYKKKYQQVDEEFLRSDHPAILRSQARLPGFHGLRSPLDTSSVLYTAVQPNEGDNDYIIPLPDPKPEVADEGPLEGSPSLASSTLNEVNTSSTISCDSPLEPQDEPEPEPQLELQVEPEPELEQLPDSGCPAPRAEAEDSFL

Take `Cc1nn(Cc2cccc(C(C)C)n2)c2cccc(NC(=O)c3cnc4cc(OCCN5CCN(C(C)C)CC5)ccn34)c12` [Example 6, 7-(2-(4-Isopropylpiperazin-1-yl)ethoxy)-N-(1-((6-isopropylpyridin-2-yl)methyl)-3-methyl-1H-indazol-4-yl)imidazo[1,2-a]pyridine-3-carboxamide]: the concentration for half-maximal inhibition (IC50) came out at 6.3 nM against PDGFR beta [1], 33.5 nM at PDGFR beta [2], 40.9 nM on cFMS and 57 nM on c-KIT.

In the case of `Cc1nn(Cc2cccc(C(F)(F)F)n2)c2cccc(NC(=O)c3cnc4cc(OCCN5CCN(C(C)C)CC5)ccn34)c12` [Example 45, 7-(2-(4-isopropylpiperazin-1-yl)ethoxy)-N-(3-methyl-1-((6-(trifluoromethyl)pyridin-2-yl)methyl)-1H-indazol-4-yl)imidazo[1,2-a]pyridine-3-carboxamide], the IC50 against PDGFR beta [1] came out at 113 nM; at PDGFR beta [2], 347 nM; on cFMS it was 13.4 nM; on c-KIT, 166 nM.

With `Cc1cc(C)nc(Cn2nc(C)c3c(NC(=O)c4cnc5cc(OCCN6CCN(C)[C@@H](C)C6)ccn45)cccc32)c1` [Example 34, (S)-7-(2-(3,4-dimethylpiperazin-1-yl)ethoxy)-N-(1-((4,6-dimethylpyridin-2-yl)methyl)-3-methyl-1H-indazol-4-yl)imidazo[1,2-a]pyridine-3-carboxamide], the IC50 is 1670 nM on PDGFR beta [1] and not below 1000 nM against PDGFR beta [2].

For the compound `Cc1cccc(CCn2nc(C)c3c(NC(=O)c4cnc5cc(OCCN6CCN(C)[C@@H](C)C6)ccn45)cccc32)n1` [Example 42, (S)-7-(2-(3,4-dimethylpiperazin-1-yl)ethoxy)-N-(3-methyl-1-(2-(6-methylpyridin-2-yl)ethyl)-1H-indazol-4-yl)imidazo[1,2-a]pyridine-3-carboxamide], the IC50 against PDGFR beta [1] is 4800 nM; against PDGFR beta [2] it was not below 1000 nM.

On to `Cc1cccc(Cn2nc(C)c3c(NC(=O)c4cnc5cc(OCCN6CCN(C(=O)OC(C)(C)C)CC6)ccn45)cccc32)n1` [Example 56, tert-Butyl 4-(2-(3-(3-methyl-1-((6-methylpyridin-2-yl)methyl)-1H-indazol-4-ylcarbamoyl)imidazo[1,2-a]pyridin-7-yloxy)ethyl)piperazine-1-carboxylate], for which the results for the IC50 at PDGFR beta [2], on cFMS and on c-KIT were not below 1000 nM, 32.1 nM and 1160 nM, respectively.

On to `Cc1cccc(Cn2nc(C)c3c(NC(=O)c4cnc5cc(N6CCCC6)ccn45)cccc32)n1` [Example 54, N-(3-methyl-1-((6-methylpyridin-2-yl)methyl)-1H-indazol-4-yl)-7-(pyrrolidin-1-yl)imidazo[1,2-a]pyridine-3-carboxamide dihydrochloride], for which the IC50 is 291 nM against PDGFR beta [2], 8.8 nM at cFMS and 387 nM on c-KIT.

In the case of `Cc1cccc(Cn2nc(C)c3c(NC(=O)c4cnc5cc(C6CCNCC6)ccn45)cccc32)n1` [Example 52, N-(3-methyl-1-((6-methylpyridin-2-yl)methyl)-1H-indazol-4-yl)-7-(piperidin-4-yl)imidazo[1,2-a]pyridine-3-carboxamide tri-hydrochloride], the IC50 was not below 1000 nM against PDGFR beta [2], 108 nM at cFMS and 5000 nM on c-KIT.

Consider `Cc1cccc(Cn2nc(C)c3c(NC(=O)c4cnc5cc(O)ccn45)cccc32)n1` [Example 63, 7-hydroxy-N-(3-methyl-1-((6-methylpyridin-2-yl)methyl)-1H-indazol-4-yl)imidazo[1,2-a]pyridine-3-carboxamide], for which the figures for the IC50 against PDGFR beta [2], at cFMS and at c-KIT were not below 1000 nM, 47 nM and 5000 nM, respectively.

With `Cc1cccc(Cn2nc(C)c3c(NC(=O)c4cnc5cc(C(C)O)ccn45)cccc32)n1` (stereo not drawn) [Example 76, 7-(1-hydroxyethyl)-N-(3-methyl-1-((6-methylpyridin-2-yl)methyl)-1H-indazol-4-yl)imidazo[1,2-a]pyridine-3-carboxamide], the figures for the IC50 at PDGFR beta [2], at cFMS and at c-KIT were not below 1000 nM, 47 nM and 5000 nM, respectively.

(Values after patent publication US10669269B2, “Substituted N-(1H-indazol-4-yl)imidazo[1,2-a]pyridine-3-carboxamide compounds as type III receptor tyrosine kinase inhibitors” (ARRAY BIOPHARMA INC., priority 2010, dated 2020).)
